# Experimental data: ChEMBL document CHEMBL5518189, “Design, synthesis and biological evaluation of 1,2,3-triazole benzothiazole derivatives as tubulin polymerization inhibitors with potent anti-esophageal cancer activities” (Eur J Med Chem, 2024)
# Active and inactive are the calls of the source. The calls are words filed in the database; no cut-off is given here.
# Experiments:
# KYSE-30 [1] = assay: Antiproliferative activity against human KYSE-30 cells assessed as inhibition of cell growth measured after 48 hrs by CCK8 method; format: functional, cell-based; details: KYSE-30, 48 h
# HCT-116 = assay: Antiproliferative activity against human HCT-116 cells assessed as inhibition of cell growth measured after 48 hrs by CCK8 method; format: functional, cell-based; details: HCT-116, 48 h
# Tubulin (Homo sapiens) [2] = target: T1, Tubulin (Homo sapiens) (UniProt P68371+Q9H4B7+P0DPH7+P68366+Q13509+Q71U36+P04350+Q3ZCM7+P07437+P68363+Q9BQE3+Q6PEY2+Q13885+Q9BVA1+Q9BUF5); assay: Inhibition of tubulin polymerization (unknown origin) at 0.3 to 3 uM measured upto 4500 secs by fluorescence based analysis; format: protein-complex assay; details: dose 0.3-3 µM, time <= 4500.0 sec
# Tubulin = assay: Inhibition of tubulin polymerization (unknown origin) measured upto 4500 secs by fluorescence based analysis; format: protein-complex assay, Homo sapiens
# Tubulin (Homo sapiens) [3] = target: T1, Tubulin (Homo sapiens); assay: Inhibition of tubulin polymerization in human KYSE-30 cells assessed as appearance of multinucleation at 20 to 40 nM incubated for 6 hrs by immunofluorescence staining based fluorescence microscopic analysis; format: cell-based; details: dose 20-40 nM
# ECa-109 cell line [4] = assay: Antiproliferative activity against human EC109 cells assessed as reduction in cell viability measured after 48 hrs by CCK-8 method; format: functional, cell-based; details: dose 10-70 nM
# KYSE-30 [5] = assay: Antiproliferative activity against human KYSE-30 cells assessed as reduction in cell viability at 70 nM measured after 48 hrs by CCK-8 method relative to control; format: functional
# ECa-109 cell line [6] = assay: Antiproliferative activity against human EC109 cells assessed as reduction in cell viability at 70 nM measured after 48 hrs by CCK-8 method relative to control; format: functional
# ECa-109 cell line [7] = assay: Inhibition of colony formation in human EC109 cells at 20 to 40 nM incubated for 7 days by crystal violet staining based analysis; format: functional, cell-based; details: dose 20-40 nM, time 7.0 day
# ECa-109 cell line [8] = assay: Induction of cell cycle arrest in human EC109 cells assessed as accumulation of cells at G2/M phase at 0 to 40 nM measured after 48 hrs by propidium iodide staining based flow cytometry analysis (reference value: 14.57%); format: functional; details: dose 0-40 nM
# ECa-109 cell line [9] = assay: Induction of cell cycle arrest in human EC109 cells assessed as downregulation of Wee1 phosphorylation level at 40 to 60 nM measured after 48 hrs by Western blot analysis; format: functional, cell-based; details: dose 40-60 nM
# ECa-109 cell line [10] = assay: Induction of cell cycle arrest in human EC109 cells assessed as upregulation of histone H3 phosphorylation level at 40 to 60 nM measured after 48 hrs by Western blot analysis; format: functional, cell-based; details: dose 40-60 nM
# KYSE-30 [11] = assay: Induction of cell cycle arrest in human KYSE-30 cells assessed as downregulation of CDK1 level at 40 to 60 nM measured after 48 hrs by Western blot analysis; format: functional, cell-based; details: dose 40-60 nM
# KYSE-30 [12] = assay: Induction of cell cycle arrest in human KYSE-30 cells assessed as downregulation of Wee1 phosphorylation level at 40 to 60 nM measured after 48 hrs by Western blot analysis; format: functional, cell-based; details: dose 40-60 nM
# KYSE-30 [13] = assay: Induction of cell cycle arrest in human KYSE-30 cells assessed as effect on cyclin B1 level at 40 to 60 nM measured after 48 hrs by Western blot analysis; format: functional, cell-based; details: dose 40-60 nM
# KYSE-30 [14] = assay: Induction of cell cycle arrest in human KYSE-30 cells assessed as upregulation of histone H3phosphorylation level at 40 to 60 nM measured after 48 hrs by Western blot analysis; format: functional, cell-based; details: dose 40-60 nM
# ECa-109 cell line [15] = assay: Induction of apoptosis in human EC109 cells assessed as increase in total number of apoptotic cells at 40 nM measured after 48 hrs by annexin V-FITC and PI staining based flow cytometry analysis (reference value: 4.93%); format: functional
# ECa-109 cell line [16] = assay: Induction of apoptosis in human EC109 cells measured after 48 hrs by annexin V-FITC and PI staining based flow cytometry analysis; format: functional, cell-based; details: dose 20-40 nM
# KYSE-30 [17] = assay: Induction of apoptosis in human KYSE-30 cells measured after 48 hrs by annexin V-FITC and PI staining based flow cytometry analysis; format: functional, cell-based; details: dose 20-40 nM
# KYSE-30 [18] = assay: Induction of apoptosis in human KYSE-30 cells assessed as decrease in pro-caspase 3 level at 40 to 100 nM measured after 48 hrs by Western blot analysis; format: functional, cell-based; details: dose 40-100 nM
# ECa-109 cell line [19] = assay: Induction of apoptosis in human EC109 cells assessed as increase in caspase 3 activity at 40 to 100 nM measured after 48 hrs by Western blot analysis; format: functional, cell-based; details: dose 40-100 nM
# ECa-109 cell line [20] = assay: Induction of apoptosis in human EC109 cells assessed as decrease in pro-caspase 3 level at 40 to 100 nM measured after 48 hrs by Western blot analysis; format: functional, cell-based; details: dose 40-100 nM
# ECa-109 cell line [21] = assay: Induction of apoptosis in human EC109 cells assessed as increase in cleaved caspase 3 level at 40 to 100 nM measured after 48 hrs by Western blot analysis; format: functional, cell-based; details: dose 40-100 nM
# ECa-109 cell line [22] = assay: Induction of apoptosis in human EC109 cells assessed as increase in cleaved PARP level at 40 to 100 nM measured after 48 hrs by Western blot analysis; format: functional, cell-based; details: dose 40-100 nM
# Cell membrane [23] = assay: Induction of mitochondrial membrane depolarization in human EC109 cells at 40 to 60 nM incubated for 24 hrs by flow cytometry analysis; format: cell membranes; details: dose 40-60 nM
# Cell membrane [24] = assay: Induction of mitochondrial membrane depolarization in human EC109 cells assessed as increase in caspase 9 activity at 40 to 60 nM incubated for 24 hrs by flow cytometry analysis; format: cell membranes; details: dose 40-60 nM
# ECa-109 cell line [25] = assay: Induction of apoptosis in human EC109 cells assessed as effect on bax level at 40 to 60 nM by flow cytometry analysis; format: functional, cell-based; details: dose 40-60 nM
# ECa-109 cell line [26] = assay: Induction of apoptosis in human EC109 cells assessed as effect on Bcl-xl level at 40 to 60 nM by flow cytometry analysis; format: functional, cell-based; details: dose 40-60 nM
# KYSE-30 [27] = assay: Induction of apoptosis in human KYSE-30 cells assessed as effect on bax level at 40 to 60 nM by flow cytometry analysis; format: functional, cell-based; details: dose 40-60 nM
# KYSE-30 [28] = assay: Induction of apoptosis in human KYSE-30 cells assessed as effect on bak level at 40 to 60 nM by flow cytometry analysis; format: functional, cell-based; details: dose 40-60 nM
# KYSE-30 [29] = assay: Induction of apoptosis in human KYSE-30 cells assessed as downregulation of Bcl-2 level at 40 to 60 nM by flow cytometry analysis; format: functional, cell-based; details: dose 40-60 nM
# KYSE-30 [30] = assay: Induction of apoptosis in human KYSE-30 cells assessed as downregulation of XIAP level at 40 to 60 nM by flow cytometry analysis; format: functional, cell-based; details: dose 40-60 nM
# KYSE-30 [31] = assay: Induction of apoptosis in human KYSE-30 cells assessed as increase in Noxa expression level at 40 to 60 nM by flow cytometry analysis; format: functional, cell-based; details: dose 40-60 nM
# ECa-109 [32] = assay: Downregulation of YAP level in human EC109 cells incubated for 48 hrs; format: functional, cell-based; details: dose 40-80 nM
# ECa-109 [33] = assay: Effect on MST1 level in human EC109 cells at 40 to 60 nM measured after 48 hrs; format: functional, cell-based; details: dose 40-60 nM
# ECa-109 [34] = assay: Downregulation of MST phosphorylation level in human EC109 cells at 40 to 60 nM measured after 48 hrs; format: functional, cell-based; details: dose 40-60 nM
# ECa-109 [35] = assay: Downregulation of YAP level in human EC109 cells at 60 nM incubated for 48 hrs in presence of MG132; format: functional, cell-based
# KYSE-30 [36] = assay: Induction of apoptosis in human KYSE-30 cells assessed as increase in cleaved PARP level at 40 to 100 nM measured after 48 hrs by Western blot analysis; format: functional, cell-based; details: dose 40-100 nM
smiles,measurement,setting,value
COc1ccc(CN(C(=O)Cn2cc(CSc3nc4ccccc4s3)nn2)c2cc(OC)c(OC)c(OC)c2)cc1O,IC50,KYSE-30 [1],42 nM
same,IC50,HCT-116,62 nM
same,inhibition,Tubulin (Homo sapiens) [2],Active
same,IC50,Tubulin,446 nM
same,inhibition,Tubulin (Homo sapiens) [3],Active
same,Activity,ECa-109 cell line [4],Dose-Dependent Effect
same,Activity,KYSE-30 [5],>90%
same,Activity,ECa-109 cell line [6],>90%
same,inhibition,ECa-109 cell line [7],Active
same,Activity,ECa-109 cell line [8],55.65%
same,Activity,ECa-109 cell line [9],Active
same,Activity,ECa-109 cell line [10],Active
same,Activity,KYSE-30 [11],Active
same,Activity,KYSE-30 [12],Active
same,Activity,KYSE-30 [13],inactive
same,Activity,KYSE-30 [14],Active
same,Activity,ECa-109 cell line [15],31.07%
same,Activity,ECa-109 cell line [16],Dose-Dependent Effect
same,Activity,KYSE-30 [17],Dose-Dependent Effect
same,Activity,KYSE-30 [18],Active
same,Activity,ECa-109 cell line [19],Active
same,Activity,ECa-109 cell line [20],Active
same,Activity,ECa-109 cell line [21],Active
same,Activity,ECa-109 cell line [22],Active
same,Activity,Cell membrane [23],Active
same,Activity,Cell membrane [24],Active
same,Activity,ECa-109 cell line [25],inactive
same,Activity,ECa-109 cell line [26],inactive
same,Activity,KYSE-30 [27],inactive
same,Activity,KYSE-30 [28],inactive
same,Activity,KYSE-30 [29],Active
same,Activity,KYSE-30 [30],Active
same,Activity,KYSE-30 [31],Active
same,Activity,ECa-109 [32],Dose-Dependent Effect
same,Activity,ECa-109 [33],inactive
same,Activity,ECa-109 [34],Active
same,Activity,ECa-109 [35],inactive
same,Activity,KYSE-30 [36],Active
